According to ChEMBL document CHEMBL1158772, “Benzophenones from Hypericum carinatum” (J Nat Prod, 2005):
Active and inactive are the calls of the source. No cut-off for these calls is given here.

Key:
Assay type in all cases: functional
[1] = Antioxidant activity assessed as ABAP free radical scavenging measured at 1.6 mM by TRAP assay
[2] = Antioxidant activity assessed as ABAP free radical scavenging measured at 3.2 mM by TRAP assay
[3] = Antioxidant activity assessed as ABAP free radical scavenging measured by TRAP assay

SMILES | Activity [1] | Activity [2] | Activity [3]
Cc1c(O)c(C(=O)c2ccccc2)c(O)c2c1OC(C)(C)C=C2 | Active | Active | –
CC(C)C(=O)C1=C(O)C(Cc2c(O)c3c(c(C(=O)C(C)C)c2O)OC(C)(C)C=C3)=C(O)C(C)(C)C1=O | – | – | inactive
Cc1c(O)c2c(c(C(=O)c3ccccc3)c1O)OC(C)(C)C=C2 | – | – | inactive
O=c1c(O)c(-c2ccc(O)c(O)c2)oc2cc(O)cc(O)c12 | – | Active | –
